From PMC10648349, “Aromatic Diboronic Acids as Effective KPC/AmpC Inhibitors” (Molecules, 2023)
In brackets after ≈: the same amount, converted by molar mass.

Key:
[1] = test system: E. coli 77 CMY-2-positive; experiment: combination disc test CDT-AmpC; format: cell-based; details: Escherichia coli; agent 0.3 mg per disc; read-out: Diameter of inhibition zone, CAZ-30 disc with agent
[2] = test system: P. aeruginosa MUW 700 cAmpC-positive; experiment: combination disc test CDT-AmpC; format: cell-based; details: Pseudomonas aeruginosa; agent 0.3 mg per disc; read-out: Diameter of inhibition zone, CAZ-30 disc with agent
[3] = test system: C. guilliermondii IBA 155; experiment: antifungal activity (disc-diffusion, MIC, MFC); format: cell-based, Candida guilliermondii; details: Meyerozyma guilliermondii, IBA155; for zone of inhibition at 0.4 mg/disc: 0.4 mg per disc, 9 mm disc (fluconazole 0.025 mg, 6 mm disc), - no zone, read-out: Diameter of inhibition zone; for MIC: fluconazole by Etest
Summary of the method: (§1)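 Following CLSI and EUCAST guidance, DMSO-dissolved compounds were tested by broth MIC, by minimal bactericidal (bacteria) or fungicidal (yeast) concentration, and by disc diffusion at 0.4 mg per disc. Comparators were fluconazole (yeasts), linezolid (Gram-positives) and nitrofurantoin (Gram-negative rods).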

[4] = test system: C. tropicalis IBA 171; experiment: antifungal activity (disc-diffusion, MIC, MFC); format: cell-based; details: Candida tropicalis, IBA171; for MIC: fluconazole by Etest
Summary of the method: as §1

[5] = test system: S. cerevisiae ATCC 9763; experiment: antifungal activity (disc-diffusion, MIC, MFC); format: cell-based; details: Saccharomyces cerevisiae, ATCC9763; for zone of inhibition at 0.4 mg/disc: 0.4 mg per disc, 9 mm disc (fluconazole 0.025 mg, 6 mm disc), - no zone, read-out: Diameter of inhibition zone; for MIC: fluconazole by Etest
Summary of the method: as §1

[6] = test system: C. albicans ATCC 90028; experiment: antifungal activity (disc-diffusion, MIC, MFC); format: cell-based; details: Candida albicans, ATCC90028; for MIC: fluconazole by Etest
Summary of the method: as §1

[7] = test system: C. tropicalis ATCC 750; experiment: antifungal activity (disc-diffusion, MIC, MFC); format: cell-based; details: Candida tropicalis, ATCC750; for zone of inhibition at 0.4 mg/disc: 0.4 mg per disc, 9 mm disc (fluconazole 0.025 mg, 6 mm disc), - no zone, read-out: Diameter of inhibition zone; for MIC: fluconazole by Etest
Summary of the method: as §1

[8] = test system: C. parapsilosis ATCC 22019; experiment: antifungal activity (disc-diffusion, MIC, MFC); format: cell-based, Candida parapsilosis; details: Lodderomyces parapsilosis, ATCC22019; for zone of inhibition at 0.4 mg/disc: 0.4 mg per disc, 9 mm disc (fluconazole 0.025 mg, 6 mm disc), - no zone, read-out: Diameter of inhibition zone; for MIC: fluconazole by Etest
Summary of the method: as §1

[9] = test system: S. aureus ATCC 6538P; experiment: direct antimicrobial activity (disc-diffusion, MIC, MBC); format: cell-based; details: Staphylococcus aureus, ATCC6538P; for zone of inhibition at 0.4 mg/disc: 0.4 mg per disc, 9 mm disc (linezolid 0.03 mg, 6 mm disc), - no zone, read-out: Diameter of inhibition zone
Summary of the method: as §1

[10] = test system: S. epidermidis ATCC 12228; experiment: as above; format: cell-based; details: Staphylococcus epidermidis, ATCC12228; for zone of inhibition at 0.4 mg/disc: 0.4 mg per disc, 9 mm disc (linezolid 0.03 mg, 6 mm disc), - no zone, read-out: Diameter of inhibition zone
Summary of the method: as §1

[11] = test system: E. faecalis ATCC 29212; experiment: as above; format: cell-based; details: Enterococcus faecalis, ATCC29212; for zone of inhibition at 0.4 mg/disc: 0.4 mg per disc, 9 mm disc (linezolid 0.03 mg, 6 mm disc), - no zone, read-out: Diameter of inhibition zone
Summary of the method: as §1

[12] = test system: E. faecium ATCC 6057; experiment: as above; format: cell-based; details: Enterococcus faecium, ATCC6057; for zone of inhibition at 0.4 mg/disc: 0.4 mg per disc, 9 mm disc (linezolid 0.03 mg, 6 mm disc), - no zone, read-out: Diameter of inhibition zone
Summary of the method: as §1

[13] = test system: S. aureus ATCC 43300 MRSA; experiment: as above; format: cell-based; details: Staphylococcus aureus; for zone of inhibition at 0.4 mg/disc: 0.4 mg per disc, 9 mm disc (linezolid 0.03 mg, 6 mm disc), - no zone, read-out: Diameter of inhibition zone
Summary of the method: as §1

[14] = test system: P. aeruginosa MUW 700 AmpC(+); experiment: MIC of tested agent alone, microdilution; format: cell-based; details: Pseudomonas aeruginosa; read-out: MIC of agent alone
Summary of the method: (§2)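 Checkerboard synergy testing crossed two-fold dilutions of the tested agents or PBA (4–16 mg/L) with β-lactam dilutions (1–64 mg/L), and antibiotic MICs were read at each agent level. FICI was derived from the interface wells. Separately, each agent's own MIC came from standard microdilution.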

[15] = test system: K. pneumoniae 83 KPC-3(+), CTX-M-3(+); experiment: MIC of tested agent alone, microdilution; format: cell-based; details: Klebsiella pneumoniae; read-out: MIC of agent alone
Summary of the method: as §2

[16] = test system: E. coli 76 KPC-2(+); experiment: MIC of tested agent alone, microdilution; format: cell-based; details: Escherichia coli; read-out: MIC of agent alone
Summary of the method: as §2

[17] = test system: E. coli 77 CMY-2(+); experiment: MIC of tested agent alone, microdilution; format: cell-based; details: Escherichia coli; read-out: MIC of agent alone
Summary of the method: as §2

[18] = test system: K. pneumoniae ATCC BAA-1705 KPC-2(+); experiment: MIC of tested agent alone, microdilution; format: cell-based; details: Klebsiella pneumoniae, ATCCBAA1705; read-out: MIC of agent alone
Summary of the method: as §2

[19] = test system: K. pneumoniae 81 KPC-3(+); experiment: MIC of tested agent alone, microdilution; format: cell-based; details: Klebsiella pneumoniae; read-out: MIC of agent alone
Summary of the method: as §2

[20] = test system: K. pneumoniae ATCC BAA 1705 KPC-2-positive; experiment: combination disc test CDT-KPC; format: cell-based; details: Klebsiella pneumoniae, BAA1705; agent 0.3 mg per disc; read-out: Diameter of inhibition zone, MEM-10 disc with agent
[21] = test system: B. subtilis ATCC 6633; experiment: direct antimicrobial activity (disc-diffusion); format: cell-based; details: Bacillus subtilis, ATCC6633; 0.4 mg per disc, 9 mm disc (linezolid 0.03 mg, 6 mm disc); - no zone; read-out: Diameter of inhibition zone
Summary of the method: as §1

[22] = 0.4 mg per disc, 9 mm disc (fluconazole 0.025 mg, 6 mm disc), - no zone, read-out: Diameter of inhibition zone

SMILES | zone of inhibition at 300 µg/disc [1] [mm] | zone of inhibition at 300 µg/disc [2] [mm] | zone of inhibition at 0.4 mg/disc [3] [mm] | MIC [3] [µg/mL] | MIC [4] [µg/mL] | MIC [5] [µg/mL] | MIC [6] [µg/mL] | MIC [7] [µg/mL] | MIC [8] [µg/mL] | MIC [9] [µg/mL] | zone of inhibition at 0.4 mg/disc [9] [mm] | MIC [10] [µg/mL] | zone of inhibition at 0.4 mg/disc [10] [mm] | MIC [11] [µg/mL] | zone of inhibition at 0.4 mg/disc [11] [mm] | MIC [12] [µg/mL] | zone of inhibition at 0.4 mg/disc [12] [mm] | MIC [13] [µg/mL] | zone of inhibition at 0.4 mg/disc [13] [mm] | zone of inhibition at 0.4 mg/disc [21] [mm] | also measured
OB(O)c1ccc(C(F)(F)F)cc1B(O)O [3e] | 17 | 17 | 40 | 3.12 (≈ 13.3 µM) | 6.25 (≈ 26.7 µM) | 50 (≈ 214 µM) | 6.25 (≈ 26.7 µM) | 12.5 (≈ 53.5 µM) | 12.5 (≈ 53.5 µM) | 100 (≈ 428 µM) | 17 | 200 (≈ 856 µM) | 21 | 200 (≈ 856 µM) | 14 | 200 (≈ 856 µM) | 13 | 400 (≈ 1710 µM) | 15 | 22 | MFC [3]: 400 µg/mL (≈ 1710 µM); MFC [4]: 400 µg/mL (≈ 1710 µM); zone of inhibition at 0.4 mg/disc [5]: 23 mm; MFC [6]: 400 µg/mL (≈ 1710 µM); zone of inhibition at 0.4 mg/disc [7]: 28 mm; zone of inhibition at 0.4 mg/disc [8]: 30 mm; MIC [14]: > 400 µg/mL; MIC [15]: > 400 µg/mL; MIC [16]: > 400 µg/mL; MIC [17]: > 400 µg/mL; MIC [18]: > 400 µg/mL; MIC [19]: > 400 µg/mL; zone of inhibition at 300 µg/disc [20]: 6 mm
OB(O)c1ccc(F)cc1B(O)O [3c] | 20 | 20 |  | > 400 | 50 (≈ 272 µM) | 100 (≈ 544 µM) | 100 (≈ 544 µM) | 50 (≈ 272 µM) | 100 (≈ 544 µM) | 200 (≈ 1090 µM) | 13 | 100 (≈ 544 µM) | 24 | 400 (≈ 2180 µM) |  | 400 (≈ 2180 µM) | 12 | 400 (≈ 2180 µM) | 11 | 18 | MIC [14]: > 400 µg/mL; MIC [15]: > 400 µg/mL; MIC [16]: > 400 µg/mL; MIC [17]: > 400 µg/mL; MIC [18]: > 400 µg/mL; MIC [19]: > 400 µg/mL; zone of inhibition at 300 µg/disc [20]: 12 mm
OB(O)c1cc(C(F)(F)F)cc(B(O)O)c1F [2e] | 19 | 16 | 14 | > 400 | 400 (≈ 1590 µM) | > 400 | 400 (≈ 1590 µM) | > 400 | 400 (≈ 1590 µM) | 6.25 (≈ 24.8 µM) | 29 | 0.78 (≈ 3.1 µM) | 35 | 50 (≈ 199 µM) | 21 | 100 (≈ 397 µM) | 18 | 12.5 (≈ 49.7 µM) | 25 | 20 | MIC [14]: > 400 µg/mL; MIC [15]: > 400 µg/mL; MIC [16]: > 400 µg/mL; MIC [17]: > 400 µg/mL; MIC [18]: > 400 µg/mL; MIC [19]: > 400 µg/mL; zone of inhibition at 300 µg/disc [20]: 6 mm
O=Cc1cc(F)ccc1B(O)O [7b] |  |  | 27 | 25 (≈ 149 µM) | 50 (≈ 298 µM) | 6.25 (≈ 37.2 µM) | 6.25 (≈ 37.2 µM) | 50 (≈ 298 µM) | 12.5 (≈ 74.4 µM) | 50 (≈ 298 µM) | 19 | 50 (≈ 298 µM) | 30 | 200 (≈ 1190 µM) | 14 | 200 (≈ 1190 µM) | 14 | 50 (≈ 298 µM) | 20 | 22 | zone of inhibition at 0.4 mg/disc [4, 22]: 22 mm; zone of inhibition at 0.4 mg/disc [5]: 35 mm; zone of inhibition at 0.4 mg/disc [6, 22]: 31 mm; zone of inhibition at 0.4 mg/disc [7]: 21 mm; zone of inhibition at 0.4 mg/disc [8]: 17 mm; MBC [9]: 100 µg/mL (≈ 595 µM); MBC [10]: 100 µg/mL (≈ 595 µM)
